From patent EP4722207A1, “OXOISOINDOLINYL-SUBSTITUTED TETRAHYDROPYRIMIDINEDIONE DERIVATIVE AND USE THEREOF” (Gluetacs Therapeutics (Shanghai) Co., Ltd., priority 2023, dated 2024)

Columns and labels:
WEE1 = target: T1, WEE1 (Homo sapiens, UniProt P30291+Q96SW2); assay: Western-blot assay, substrate protein degradation in hPBMCs: WEE1; format: cell-based; conditions: for WEE1 substrate protein remaining %: compounds at 50 nM and 500 nM, 24 hours; for substrate protein remaining % WEE1: 24 hours of compound treatment, 50 nM and 500 nM
T1 construct: effects of the compounds of the present disclosure on the expression of target proteins in cells; endogenous in cells; host or cells: human PBMCs (hPBMCs)

IKZF1 = target: T2, IKZF1 (Homo sapiens, UniProt Q13422+Q96SW2); assay: Western-blot assay, substrate protein degradation in hPBMCs: IKZF1; format: cell-based; conditions: for IKZF1 substrate protein remaining %: compounds at 50 nM and 500 nM, 24 hours; for substrate protein remaining % IKZF1: 24 hours of compound treatment, 50 nM and 500 nM
T2 construct: effects of the compounds of the present disclosure on the expression of target proteins in cells; endogenous in cells; host or cells: human PBMCs (hPBMCs)

IKZF3 = target: T3, IKZF3 (Homo sapiens, UniProt Q96SW2+Q9UKT9); assay: Western-blot assay, substrate protein degradation in hPBMCs: IKZF3; format: cell-based; conditions: for IKZF3 substrate protein remaining %: compounds at 50 nM and 500 nM, 24 hours; for substrate protein remaining % IKZF3: 24 hours of compound treatment, 50 nM and 500 nM
T3 construct: effects of the compounds of the present disclosure on the expression of target proteins in cells; endogenous in cells; host or cells: human PBMCs (hPBMCs)

IKZF2 = target: T4, IKZF2 (Homo sapiens, UniProt Q96SW2+Q9UKS7); assay: Western-blot assay, substrate protein degradation in hPBMCs: IKZF2; format: cell-based; conditions: for IKZF2 substrate protein remaining %: compounds at 50 nM and 500 nM, 24 hours; for substrate protein remaining % IKZF2: 24 hours of compound treatment, 50 nM and 500 nM
T4 construct: effects of the compounds of the present disclosure on the expression of target proteins in cells; endogenous in cells; host or cells: human PBMCs (hPBMCs)

CK1α = target: T5, CK1α (Homo sapiens, UniProt P48729+Q96SW2); assay: Western-blot assay, substrate protein degradation in hPBMCs: CK1α; format: cell-based; conditions: for CK1α substrate protein remaining %: compounds at 50 nM and 500 nM, 24 hours; for substrate protein remaining % CK1α: 24 hours of compound treatment, 50 nM and 500 nM
T5 construct: effects of the compounds of the present disclosure on the expression of target proteins in cells; endogenous in cells; host or cells: human PBMCs (hPBMCs)

MM.1S = assay: Cell viability assay (CellTiter-Meiluncell Luminescent), tumor cell proliferation, MM.1S; conditions: Homo sapiens, MM1.S, 96 h; for IC50: read-out: inhibitory activity (IC50, nM) against tumor cells proliferation, MM.1S
GSPT1 = target: T6, GSPT1 (Homo sapiens, UniProt P15170+Q96SW2); assay: Western-blot assay, substrate protein degradation in hPBMCs: GSPT1; format: cell-based; conditions: for GSPT1 substrate protein remaining %: compounds at 50 nM and 500 nM, 24 hours; for substrate protein remaining % GSPT1: 24 hours of compound treatment, 50 nM and 500 nM
T6 construct: effects of the compounds of the present disclosure on the expression of target proteins in cells; endogenous in cells; host or cells: human PBMCs (hPBMCs)

H292 = assay: Cell viability assay (CellTiter-Meiluncell Luminescent), tumor cell proliferation, H292; conditions: Homo sapiens, NCI-H292, 96 h
[1] = read-out: Inhibition Rate at 10 nM (%)
[2] = read-out: Inhibition Rate at 500 nM (%)

T6 sequence (P15170 whole entry): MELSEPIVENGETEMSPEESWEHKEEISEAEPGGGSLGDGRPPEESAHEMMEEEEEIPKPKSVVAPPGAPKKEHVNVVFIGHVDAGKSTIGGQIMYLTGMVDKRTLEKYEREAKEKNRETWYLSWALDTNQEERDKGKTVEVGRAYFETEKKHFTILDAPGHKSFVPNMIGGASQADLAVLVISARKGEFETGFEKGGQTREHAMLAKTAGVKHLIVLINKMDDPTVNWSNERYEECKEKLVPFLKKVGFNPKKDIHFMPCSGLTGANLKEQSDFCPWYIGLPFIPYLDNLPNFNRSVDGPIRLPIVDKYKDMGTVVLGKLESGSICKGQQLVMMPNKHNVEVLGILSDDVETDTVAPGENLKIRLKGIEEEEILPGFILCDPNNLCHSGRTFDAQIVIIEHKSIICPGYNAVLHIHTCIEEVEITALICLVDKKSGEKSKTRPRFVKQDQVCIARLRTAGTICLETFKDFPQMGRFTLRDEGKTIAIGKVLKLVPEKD
T6 sequence (Q96SW2 whole entry): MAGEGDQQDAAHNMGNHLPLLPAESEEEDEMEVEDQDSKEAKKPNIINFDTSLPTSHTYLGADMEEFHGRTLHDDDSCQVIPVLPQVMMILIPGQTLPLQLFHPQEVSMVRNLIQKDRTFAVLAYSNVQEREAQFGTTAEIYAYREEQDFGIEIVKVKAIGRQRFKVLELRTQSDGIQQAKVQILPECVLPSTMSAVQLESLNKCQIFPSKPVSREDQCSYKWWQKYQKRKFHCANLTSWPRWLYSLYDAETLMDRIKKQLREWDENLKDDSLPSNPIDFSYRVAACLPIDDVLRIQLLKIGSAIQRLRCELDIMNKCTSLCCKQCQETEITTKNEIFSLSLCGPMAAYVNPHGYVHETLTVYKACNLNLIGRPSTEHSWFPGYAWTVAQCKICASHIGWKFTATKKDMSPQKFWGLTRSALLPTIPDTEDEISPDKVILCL
T6 sequence (Q16531 whole entry partner): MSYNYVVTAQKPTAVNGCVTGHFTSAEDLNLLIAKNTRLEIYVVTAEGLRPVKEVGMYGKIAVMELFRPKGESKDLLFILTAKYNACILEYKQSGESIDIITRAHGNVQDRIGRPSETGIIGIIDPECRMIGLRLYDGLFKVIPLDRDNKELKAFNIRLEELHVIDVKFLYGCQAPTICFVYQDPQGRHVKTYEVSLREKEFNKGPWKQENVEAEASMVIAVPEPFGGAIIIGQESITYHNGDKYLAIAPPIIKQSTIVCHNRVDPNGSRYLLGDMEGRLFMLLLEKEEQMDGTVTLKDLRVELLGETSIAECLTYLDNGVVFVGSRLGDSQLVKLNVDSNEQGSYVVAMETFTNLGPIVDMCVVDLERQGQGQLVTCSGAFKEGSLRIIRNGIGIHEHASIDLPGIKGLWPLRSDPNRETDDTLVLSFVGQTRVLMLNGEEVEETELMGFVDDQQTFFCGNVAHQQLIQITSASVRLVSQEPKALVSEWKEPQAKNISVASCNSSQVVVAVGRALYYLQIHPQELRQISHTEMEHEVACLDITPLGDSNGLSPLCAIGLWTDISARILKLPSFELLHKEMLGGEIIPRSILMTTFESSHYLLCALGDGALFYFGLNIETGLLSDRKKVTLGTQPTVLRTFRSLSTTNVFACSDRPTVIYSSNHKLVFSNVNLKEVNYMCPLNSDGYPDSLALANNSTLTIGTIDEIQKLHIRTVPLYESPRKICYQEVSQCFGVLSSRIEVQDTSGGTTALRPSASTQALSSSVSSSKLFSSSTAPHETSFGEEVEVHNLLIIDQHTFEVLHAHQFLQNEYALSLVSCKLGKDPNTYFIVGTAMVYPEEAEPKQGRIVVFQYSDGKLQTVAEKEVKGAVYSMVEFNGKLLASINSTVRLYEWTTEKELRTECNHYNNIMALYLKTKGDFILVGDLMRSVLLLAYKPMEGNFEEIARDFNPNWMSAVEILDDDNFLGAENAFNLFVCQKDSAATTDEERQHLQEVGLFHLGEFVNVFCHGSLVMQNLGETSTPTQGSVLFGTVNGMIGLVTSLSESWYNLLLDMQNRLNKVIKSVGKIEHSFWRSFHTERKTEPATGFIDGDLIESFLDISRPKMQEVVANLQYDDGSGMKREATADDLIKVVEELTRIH
T5 sequence (P48729 whole entry): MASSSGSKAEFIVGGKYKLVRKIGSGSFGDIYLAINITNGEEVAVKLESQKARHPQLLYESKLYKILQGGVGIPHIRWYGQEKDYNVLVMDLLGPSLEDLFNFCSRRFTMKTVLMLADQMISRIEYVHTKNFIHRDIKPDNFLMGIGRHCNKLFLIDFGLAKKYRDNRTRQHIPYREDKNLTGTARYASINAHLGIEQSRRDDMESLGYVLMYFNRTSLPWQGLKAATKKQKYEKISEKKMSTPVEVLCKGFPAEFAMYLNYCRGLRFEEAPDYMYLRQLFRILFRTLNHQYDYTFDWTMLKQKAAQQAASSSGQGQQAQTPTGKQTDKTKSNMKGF
T5 sequence (Q96SW2 whole entry): as the sequence (Q96SW2 whole entry) above
T5 sequence (Q16531 whole entry partner): as the sequence (Q16531 whole entry partner) above
T4 sequence (Q9UKS7 whole entry): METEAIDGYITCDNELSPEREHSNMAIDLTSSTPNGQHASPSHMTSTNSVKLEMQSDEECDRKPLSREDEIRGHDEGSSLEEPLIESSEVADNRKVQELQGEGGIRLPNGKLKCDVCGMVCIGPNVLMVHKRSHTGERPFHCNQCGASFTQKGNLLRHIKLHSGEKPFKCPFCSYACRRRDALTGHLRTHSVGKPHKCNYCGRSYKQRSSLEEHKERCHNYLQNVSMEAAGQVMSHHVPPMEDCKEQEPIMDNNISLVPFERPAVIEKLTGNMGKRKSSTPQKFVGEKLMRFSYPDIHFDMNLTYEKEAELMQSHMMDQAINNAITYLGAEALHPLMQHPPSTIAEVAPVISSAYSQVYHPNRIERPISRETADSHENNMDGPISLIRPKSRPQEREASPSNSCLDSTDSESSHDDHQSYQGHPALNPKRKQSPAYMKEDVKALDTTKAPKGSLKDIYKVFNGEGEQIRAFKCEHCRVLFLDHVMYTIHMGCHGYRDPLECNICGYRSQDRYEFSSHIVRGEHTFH
T4 sequence (Q96SW2 whole entry): as the sequence (Q96SW2 whole entry) above
T4 sequence (Q16531 whole entry partner): as the sequence (Q16531 whole entry partner) above
T1 sequence (P30291 whole entry): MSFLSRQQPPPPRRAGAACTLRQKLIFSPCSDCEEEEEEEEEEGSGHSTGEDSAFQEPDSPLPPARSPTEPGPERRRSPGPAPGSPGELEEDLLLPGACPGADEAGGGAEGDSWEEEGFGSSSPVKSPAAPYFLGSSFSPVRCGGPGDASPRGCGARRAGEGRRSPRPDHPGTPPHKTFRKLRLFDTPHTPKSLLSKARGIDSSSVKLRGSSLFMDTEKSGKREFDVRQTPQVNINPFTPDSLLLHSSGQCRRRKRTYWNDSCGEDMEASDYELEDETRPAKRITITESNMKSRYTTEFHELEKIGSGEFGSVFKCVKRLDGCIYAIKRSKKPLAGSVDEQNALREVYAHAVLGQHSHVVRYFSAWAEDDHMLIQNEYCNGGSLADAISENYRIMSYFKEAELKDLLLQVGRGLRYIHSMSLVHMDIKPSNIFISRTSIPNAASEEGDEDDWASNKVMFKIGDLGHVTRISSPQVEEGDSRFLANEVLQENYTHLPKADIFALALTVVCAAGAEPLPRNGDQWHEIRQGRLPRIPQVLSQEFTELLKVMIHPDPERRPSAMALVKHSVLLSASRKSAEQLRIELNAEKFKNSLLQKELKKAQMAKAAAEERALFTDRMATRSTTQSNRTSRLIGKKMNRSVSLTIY
T1 sequence (Q96SW2 whole entry): as the sequence (Q96SW2 whole entry) above
T1 sequence (Q16531 whole entry partner): as the sequence (Q16531 whole entry partner) above
T2 sequence (Q13422 whole entry): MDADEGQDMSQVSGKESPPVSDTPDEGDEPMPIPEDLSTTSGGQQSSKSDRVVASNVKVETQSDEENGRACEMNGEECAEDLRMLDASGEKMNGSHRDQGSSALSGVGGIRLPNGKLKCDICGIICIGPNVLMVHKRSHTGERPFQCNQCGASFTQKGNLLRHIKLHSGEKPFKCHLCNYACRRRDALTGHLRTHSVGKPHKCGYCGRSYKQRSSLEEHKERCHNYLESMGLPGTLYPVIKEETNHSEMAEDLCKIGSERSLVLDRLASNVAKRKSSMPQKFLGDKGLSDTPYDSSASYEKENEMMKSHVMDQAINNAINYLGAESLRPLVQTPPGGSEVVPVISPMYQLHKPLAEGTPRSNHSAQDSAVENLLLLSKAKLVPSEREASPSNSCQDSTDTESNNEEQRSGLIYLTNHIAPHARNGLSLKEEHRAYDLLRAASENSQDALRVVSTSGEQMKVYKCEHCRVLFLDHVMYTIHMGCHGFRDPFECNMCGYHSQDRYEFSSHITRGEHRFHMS
T2 sequence (Q96SW2 whole entry): as the sequence (Q96SW2 whole entry) above
T2 sequence (Q16531 whole entry partner): as the sequence (Q16531 whole entry partner) above

SMILES: O=C1CCN(N2Cc3cc(CN4CC(N5CCc6cc(F)ccc65)C4)ccc3C2=O)C(=O)N1 [GT-05169, 1-(5-((3-(5-fluoroindolin-1-yl)azetidin-1-yl)methyl)-1-oxoisoindolin-2-yl)dihydropyrimidine-2,4(1H,3H)-dione]
- WEE1 substrate protein remaining % (WEE1): B ("B" is defined as 80%< substrate protein remaining %≤ 100%)
- IKZF1 substrate protein remaining % (IKZF1): B ("B" is defined as 80%< substrate protein remaining %≤ 100%)
- IKZF3 substrate protein remaining % (IKZF3): A ("A" is defined as 0% ≤ substrate protein remaining % ≤ 80%)
- IKZF2 substrate protein remaining % (IKZF2): A ("A" is defined as 0% ≤ substrate protein remaining % ≤ 80%)
- CK1α substrate protein remaining % (CK1α): B ("B" is defined as 80%< substrate protein remaining %≤ 100%)
- IC50 (MM.1S): 100 to 300 nM
- GSPT1 substrate protein remaining % (GSPT1): A ("A" is defined as 0% ≤ substrate protein remaining % ≤ 80%)

SMILES: O=C1CCN(N2Cc3cc(CN4CC=C(c5nccc(Cl)c5Cl)CC4)ccc3C2=O)C(=O)N1 [GT-06392, 1-(5-((3,4-dichloro-3',6'-dihydro-[2,4'-bipyridin]-1'(2'H)-yl)methyl)-1-oxoisoindolin-2-yl)dihydropyrimidine-2,4(1H,3H)-dione]
- WEE1 substrate protein remaining % (WEE1): A ("A" is defined as 0% ≤ substrate protein remaining % ≤ 80%)
- IKZF1 substrate protein remaining % (IKZF1): B ("B" is defined as 80%< substrate protein remaining %≤ 100%)
- IKZF3 substrate protein remaining % (IKZF3): A ("A" is defined as 0% ≤ substrate protein remaining % ≤ 80%)
- IKZF2 substrate protein remaining % (IKZF2): A ("A" is defined as 0% ≤ substrate protein remaining % ≤ 80%)
- CK1α substrate protein remaining % (CK1α): A ("A" is defined as 0% ≤ substrate protein remaining % ≤ 80%)
- IC50 (MM.1S): 300 to 500 nM
- GSPT1 substrate protein remaining % (GSPT1): A ("A" is defined as 0% ≤ substrate protein remaining % ≤ 80%)

SMILES: O=C1CCN(N2Cc3cc(CN4CC=C(c5cncc(Cl)c5Cl)CC4)ccc3C2=O)C(=O)N1 [GT-06393, 1-(5-((4,5-dichloro-3',6'-dihydro-[3,4'-bipyridin]-1'(2'H)-yl)methyl)-1-oxoisoindolin-2-yl)dihydropyrimidine-2,4(1H,3H)-dione]
- WEE1 substrate protein remaining % (WEE1): A ("A" is defined as 0% ≤ substrate protein remaining % ≤ 80%)
- IKZF1 substrate protein remaining % (IKZF1): B ("B" is defined as 80%< substrate protein remaining %≤ 100%)
- IKZF3 substrate protein remaining % (IKZF3): A ("A" is defined as 0% ≤ substrate protein remaining % ≤ 80%)
- IKZF2 substrate protein remaining % (IKZF2): A ("A" is defined as 0% ≤ substrate protein remaining % ≤ 80%)
- CK1α substrate protein remaining % (CK1α): A ("A" is defined as 0% ≤ substrate protein remaining % ≤ 80%)
- IC50 (MM.1S): 500 to 1000 nM
- GSPT1 substrate protein remaining % (GSPT1): A ("A" is defined as 0% ≤ substrate protein remaining % ≤ 80%)

SMILES: CC1(C)CCC(CN2CC3CC(C2)N3Cc2ccc3c(c2)CN(N2CCC(=O)NC2=O)C3=O)=C(c2ccc(Cl)cc2)C1 [GT-06456, 1-(5-((3-((4'-chloro-5,5-dimethyl-3,4,5,6-tetrahydro-[1,1'-biphenyl]-2-yl)methyl)-3,6-diazabicyclo[3.1.1]heptan-6-yl)methyl)-1-oxoisoindolin-2-yl)dihydropyrimidine-2,4(1H,3H)-dione]
- WEE1 substrate protein remaining % (WEE1): A ("A" is defined as 0% ≤ substrate protein remaining % ≤ 80%)
- IKZF1 substrate protein remaining % (IKZF1): A ("A" is defined as 0% ≤ substrate protein remaining % ≤ 80%)
- IKZF3 substrate protein remaining % (IKZF3): A ("A" is defined as 0% ≤ substrate protein remaining % ≤ 80%)
- IKZF2 substrate protein remaining % (IKZF2): A ("A" is defined as 0% ≤ substrate protein remaining % ≤ 80%)
- CK1α substrate protein remaining % (CK1α): A ("A" is defined as 0% ≤ substrate protein remaining % ≤ 80%)
- IC50 (MM.1S): 100 to 300 nM
- GSPT1 substrate protein remaining % (GSPT1): A ("A" is defined as 0% ≤ substrate protein remaining % ≤ 80%)

SMILES: O=C1CCN(N2Cc3cc(CN4CCC(c5ccsc5)CC4)ccc3C2=O)C(=O)N1 [GT-07371, 1-(1-oxo-5-((4-(thiophen-3-yl)piperidin-1-yl)methyl)isoindolin-2-yl)dihydropyrimidine-2,4(1H,3H)-dione]
- substrate protein remaining % WEE1 (WEE1): B (80%< substrate protein remaining %≤ 100%)
- substrate protein remaining % IKZF1 (IKZF1): B (80%< substrate protein remaining %≤ 100%)
- substrate protein remaining % IKZF3 (IKZF3): A (0% ≤ substrate protein remaining % ≤ 80%)
- substrate protein remaining % IKZF2 (IKZF2): B (80%< substrate protein remaining %≤ 100%)
- substrate protein remaining % CK1α (CK1α): B (80%< substrate protein remaining %≤ 100%)
- IC50 (MM.1S): 500 to 1000 nM
- substrate protein remaining % GSPT1 (GSPT1): A (0% ≤ substrate protein remaining % ≤ 80%)

SMILES: Cc1ccc(C2CCN(Cc3ccc4c(c3)CN(N3CCC(=O)NC3=O)C4=O)CC2)s1 [GT-07425, 1-(5-((4-(5-methylthiophen-2-yl)piperidin-1-yl)methyl)-1-oxoisoindolin-2-yl)dihydropyrimidine-2,4(1H,3H)-dione]
- substrate protein remaining % WEE1 (WEE1): B (80%< substrate protein remaining %≤ 100%)
- substrate protein remaining % IKZF1 (IKZF1): B (80%< substrate protein remaining %≤ 100%)
- substrate protein remaining % IKZF3 (IKZF3): B (80%< substrate protein remaining %≤ 100%)
- substrate protein remaining % IKZF2 (IKZF2): B (80%< substrate protein remaining %≤ 100%)
- substrate protein remaining % CK1α (CK1α): B (80%< substrate protein remaining %≤ 100%)
- IC50 (MM.1S): 500 to 1000 nM
- substrate protein remaining % GSPT1 (GSPT1): A (0% ≤ substrate protein remaining % ≤ 80%)

SMILES: O=C1CCN(N2C(=O)c3ccc(CN4CC=C(c5ncnc6sc7c(c56)CCCC7)CC4)cc3C2=O)C(=O)N1 [GT-08433, 2-(2,4-dioxotetrahydropyrimidin-1(2H)-yl)-5-((4-(5,6,7,8-tetrahydrobenzo[4,5]thieno[2,3-d]pyrimidin-4-yl)-3,6-dihydropyridin-1(2H)-yl)methyl)isoindoline-1,3-dione]
- substrate protein remaining % WEE1 (WEE1): B (80%< substrate protein remaining %≤ 100%)
- substrate protein remaining % IKZF1 (IKZF1): B (80%< substrate protein remaining %≤ 100%)
- substrate protein remaining % IKZF3 (IKZF3): A (0% ≤ substrate protein remaining % ≤ 80%)
- substrate protein remaining % IKZF2 (IKZF2): B (80%< substrate protein remaining %≤ 100%)
- substrate protein remaining % CK1α (CK1α): A (0% ≤ substrate protein remaining % ≤ 80%)
- inhibition at 0.01 µM (MM.1S; [1]): 20 to 30%
- inhibition at 0.5 µM (MM.1S; [2]): 30 to 42%
- substrate protein remaining % GSPT1 (GSPT1): A (0% ≤ substrate protein remaining % ≤ 80%)
- inhibition at 0.01 µM (H292; [1]): 20 to 40%
- inhibition at 0.5 µM (H292; [2]): 15 to 20%
